Results: patent US12371428B2 (Exelixis, Inc., priority 2019, dated 2025)
Counter-ions that a name gives are not always drawn.

Legend:
[1] = target: Met (phospho-Met, HGF-stimulated PC-3 prostate cancer cells) (Homo sapiens (Human), UniProt P08581); experiment: Met autophosphorylation ELISA in PC-3 cells (Example F); format: cell-based; conditions: cellular activity; Met autophosphorylation ELISA in PC-3 cells; read-out: c-Met IC50
Outline: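 Sandwich ELISA for phospho-Met (panTyr) in PC-3 lysates. Cells starved 3 h serum-free, compound 1 h (8-pt curve, 0.3% DMSO), HGF 100 ng/mL 10 min. 100% = HGF + DMSO; 0% = HGF + reference inhibitor. IC50 by 4-parameter fit.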

[2] = target: KDR (phospho-KDR, VEGF165-stimulated HUVEC cells) (Homo sapiens (Human), UniProt P35968); experiment: KDR autophosphorylation ELISA in HUVEC cells (Example G); format: cell-based; conditions: cellular activity; KDR autophosphorylation ELISA in HUVEC cells
Outline: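 Inhibition of VEGF165-driven KDR autophosphorylation is measured in primary human umbilical vein endothelial cells after 24 h serum deprivation. Compound preincubation lasts 1 h before a 5-minute challenge with 100 ng/mL ligand, and phosphorylated receptor is then measured by ELISA in the lysates.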

Sequence of Met (phospho-Met, HGF-stimulated PC-3 prostate cancer cells) (P08581 25-1390): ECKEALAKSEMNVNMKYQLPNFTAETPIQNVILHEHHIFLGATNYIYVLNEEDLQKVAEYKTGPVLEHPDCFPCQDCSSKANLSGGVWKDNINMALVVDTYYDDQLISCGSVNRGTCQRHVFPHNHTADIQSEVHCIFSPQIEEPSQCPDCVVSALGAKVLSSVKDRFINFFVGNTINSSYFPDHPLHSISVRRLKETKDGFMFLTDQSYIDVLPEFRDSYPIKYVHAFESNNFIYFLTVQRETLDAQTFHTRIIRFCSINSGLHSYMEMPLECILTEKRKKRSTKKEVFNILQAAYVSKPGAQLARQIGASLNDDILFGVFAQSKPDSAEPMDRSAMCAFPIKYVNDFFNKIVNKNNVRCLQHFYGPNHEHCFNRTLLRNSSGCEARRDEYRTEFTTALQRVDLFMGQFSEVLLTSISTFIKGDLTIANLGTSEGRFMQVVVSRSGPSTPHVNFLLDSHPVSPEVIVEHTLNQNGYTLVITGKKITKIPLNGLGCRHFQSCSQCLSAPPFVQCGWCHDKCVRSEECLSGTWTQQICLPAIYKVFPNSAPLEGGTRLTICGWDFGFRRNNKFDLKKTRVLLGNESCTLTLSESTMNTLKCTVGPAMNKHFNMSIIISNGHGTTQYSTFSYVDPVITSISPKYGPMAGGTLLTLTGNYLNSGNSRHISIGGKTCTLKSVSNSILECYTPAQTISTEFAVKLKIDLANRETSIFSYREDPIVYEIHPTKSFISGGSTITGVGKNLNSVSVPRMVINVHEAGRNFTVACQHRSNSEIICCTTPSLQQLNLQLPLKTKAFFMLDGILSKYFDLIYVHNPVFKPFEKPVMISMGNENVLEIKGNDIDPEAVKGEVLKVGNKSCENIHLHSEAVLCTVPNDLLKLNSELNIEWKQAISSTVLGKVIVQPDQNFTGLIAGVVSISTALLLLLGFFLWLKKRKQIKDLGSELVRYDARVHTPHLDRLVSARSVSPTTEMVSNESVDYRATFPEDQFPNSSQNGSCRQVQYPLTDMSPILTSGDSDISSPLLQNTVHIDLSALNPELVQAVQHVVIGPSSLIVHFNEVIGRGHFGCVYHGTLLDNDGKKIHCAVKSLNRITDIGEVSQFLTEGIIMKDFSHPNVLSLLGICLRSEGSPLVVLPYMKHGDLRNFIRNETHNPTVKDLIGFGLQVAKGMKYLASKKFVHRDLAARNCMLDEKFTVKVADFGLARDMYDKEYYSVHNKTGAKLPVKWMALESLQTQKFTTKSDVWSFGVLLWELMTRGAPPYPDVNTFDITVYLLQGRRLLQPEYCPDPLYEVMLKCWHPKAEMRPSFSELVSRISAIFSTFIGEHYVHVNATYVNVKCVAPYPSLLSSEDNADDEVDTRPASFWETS
Sequence of KDR (phospho-KDR, VEGF165-stimulated HUVEC cells) (P35968 20-1356): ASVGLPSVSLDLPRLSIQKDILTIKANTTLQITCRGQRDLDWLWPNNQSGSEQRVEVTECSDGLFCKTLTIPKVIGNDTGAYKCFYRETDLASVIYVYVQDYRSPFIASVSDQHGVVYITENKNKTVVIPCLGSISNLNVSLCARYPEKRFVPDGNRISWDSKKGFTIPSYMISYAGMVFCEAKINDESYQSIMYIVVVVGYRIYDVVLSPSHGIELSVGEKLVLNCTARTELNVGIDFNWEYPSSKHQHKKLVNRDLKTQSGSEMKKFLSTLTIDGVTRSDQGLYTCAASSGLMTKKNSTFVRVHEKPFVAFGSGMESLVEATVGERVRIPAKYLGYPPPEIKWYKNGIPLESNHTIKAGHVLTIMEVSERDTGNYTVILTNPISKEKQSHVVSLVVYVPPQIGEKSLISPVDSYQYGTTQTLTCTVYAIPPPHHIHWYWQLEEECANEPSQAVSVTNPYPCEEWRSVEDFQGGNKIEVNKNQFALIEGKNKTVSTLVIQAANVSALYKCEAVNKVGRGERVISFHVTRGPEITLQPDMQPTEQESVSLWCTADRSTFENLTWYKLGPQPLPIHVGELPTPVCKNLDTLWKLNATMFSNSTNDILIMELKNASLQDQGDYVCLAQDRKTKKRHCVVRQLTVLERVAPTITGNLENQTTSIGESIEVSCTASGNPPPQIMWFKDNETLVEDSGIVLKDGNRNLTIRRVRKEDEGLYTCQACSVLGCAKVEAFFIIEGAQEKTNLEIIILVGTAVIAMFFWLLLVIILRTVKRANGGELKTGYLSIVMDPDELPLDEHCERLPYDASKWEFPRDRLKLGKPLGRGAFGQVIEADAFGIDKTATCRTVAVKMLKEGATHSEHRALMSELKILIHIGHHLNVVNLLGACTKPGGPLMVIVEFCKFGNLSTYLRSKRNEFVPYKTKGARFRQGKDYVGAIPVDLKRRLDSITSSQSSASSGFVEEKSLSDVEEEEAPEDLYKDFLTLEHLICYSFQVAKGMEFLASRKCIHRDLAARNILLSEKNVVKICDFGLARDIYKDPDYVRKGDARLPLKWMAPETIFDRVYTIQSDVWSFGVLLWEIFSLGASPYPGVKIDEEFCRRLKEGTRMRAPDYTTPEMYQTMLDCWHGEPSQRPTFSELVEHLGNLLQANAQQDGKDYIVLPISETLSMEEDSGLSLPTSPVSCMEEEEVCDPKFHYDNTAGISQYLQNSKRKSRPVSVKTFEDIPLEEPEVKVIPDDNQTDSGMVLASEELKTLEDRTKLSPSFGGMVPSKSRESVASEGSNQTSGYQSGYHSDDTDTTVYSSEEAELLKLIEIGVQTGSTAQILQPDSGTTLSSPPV

SMILES | IC50 [1] | IC50 [2]
COc1cc2nccc(Oc3ccc(NC(=O)c4cn(C(C)(C)C)c(C)c(-c5ccc(F)cc5)c4=O)cc3F)c2nc1OC [Compound 139, 1-tert-Butyl-N-[4-[(6,7-dimethoxy-1,5-naphthyridin-4-yl)oxy]-3-fluorophenyl]-5-(4-fluorophenyl)-6-methyl-4-oxopyridine-3-carboxamide] | 100 to 300 nM | > 300 nM
COc1cc2nccc(Oc3ccc(NC(=O)c4cn(OC)cc(-c5ccc(F)cc5)c4=O)cc3F)c2nc1OC [Compound 126, N-[4-[(6,7-Dimethoxy-1,5-naphthyridin-4-yl)oxy]-3-fluorophenyl]-5-(4-fluorophenyl)-1-methoxy-4-oxopyridine-3-carboxamide] | < 100 nM | < 100 nM
COc1cnc2c(Oc3ccc(NC(=O)c4cncc(-c5ccc(F)cc5)c4O)cc3)ccnc2c1 [Compound 146, 5-(4-Fluorophenyl)-4-hydroxy-N-[4-[(7-methoxy-1,5-naphthyridin-4-yl)oxy]phenyl]pyridine-3-carboxamide] | < 100 nM | < 100 nM
COc1cc2nccc(Oc3ccc(NC(=O)c4cnc(C)c(-c5ccc(F)cc5)c4O)cc3F)c2nc1Br [Compound 142, N-[4-[(6-Bromo-7-methoxy-1,5-naphthyridin-4-yl)oxy]-3-fluorophenyl]-5-(4-fluorophenyl)-4-hydroxy-6-methylpyridine-3-carboxamide] | < 100 nM | < 100 nM
CCn1nc(C(=O)Nc2ccc(Oc3ccnc4cc(OC)c(OC)nc34)c(F)c2)c(=O)c(-c2ccc(F)cc2)c1C [Compound 568, N-[4-[(6,7-Dimethoxy-1,5-naphthyridin-4-yl)oxy]-3-fluorophenyl]-1-ethyl-5-(4-fluorophenyl)-6-methyl-4-oxopyridazine-3-carboxamide] | < 100 nM | < 100 nM
COc1cnc2c(Oc3ccc(NC(=O)c4cnc(C)c(-c5ccc(F)cc5C)c4O)cc3F)ccnc2c1 [Compound 175, N-[3-Fluoro-4-[(7-methoxy-1,5-naphthyridin-4-yl)oxy]phenyl]-5-(4-fluoro-2-methylphenyl)-4-hydroxy-6-methylpyridine-3-carboxamide] | < 100 nM | < 100 nM
Cc1c(-c2ccc(F)cc2)c(=O)c(C(=O)Nc2ccc(Oc3ccnc4cc(F)cnc34)c(F)c2)cn1C(C)C [Compound 162, N-[3-Fluoro-4-[(7-fluoro-1,5-naphthyridin-4-yl)oxy]phenyl]-5-(4-fluorophenyl)-6-methyl-4-oxo-1-propan-2-ylpyridine-3-carboxamide] | 100 to 300 nM | > 300 nM
Cc1ncc(C(=O)Nc2ccc(Oc3ccnc4cnc(Cl)cc34)c(F)c2)c(O)c1-c1ccc(F)cc1 [Compound 641, N-[4-[(6-chloro-1,7-naphthyridin-4-yl)oxy]-3-fluorophenyl]-5-(4-fluorophenyl)-4-hydroxy-6-methylpyridine-3-carboxamide] | < 100 nM | < 100 nM
Cc1ncc(C(=O)Nc2ccc(Oc3ccnc4cc(-c5cnn(C(F)F)c5)cnc34)cc2)c(O)c1-c1ccc(F)cc1 [Compound 611, N-[4-[[7-[1-(Difluoromethyl)pyrazol-4-yl]-1,5-naphthyridin-4-yl]oxy]phenyl]-5-(4-fluorophenyl)-4-hydroxy-6-methylpyridine-3-carboxamide] | < 100 nM | < 100 nM
COc1cc2nccc(Oc3ccc(NC(=O)c4cn(C(C)C)c(C)c(-c5ccc(F)cc5)c4=O)cc3F)c2nc1N [Compound 579, N-[4-[(6-Amino-7-methoxy-1,5-naphthyridin-4-yl)oxy]-3-fluorophenyl]-5-(4-fluorophenyl)-6-methyl-4-oxo-1-propan-2-ylpyridine-3-carboxamide] | < 100 nM | > 300 nM
COc1cnc2c(Oc3ccc(NC(=O)c4cn(C(C)C)c(C)c(-c5ccc(F)cc5)c4=O)cc3F)ccnc2c1 [Compound 121, N-[3-Fluoro-4-[(7-methoxy-1,5-naphthyridin-4-yl)oxy]phenyl]-5-(4-fluorophenyl)-6-methyl-4-oxo-1-propan-2-ylpyridine-3-carboxamide] | < 100 nM | > 300 nM
COc1cc2nccc(Oc3ccc(NC(=O)c4cn(C(C)C)cc(-c5ccc(F)cc5)c4=O)cc3)c2nc1OC [Compound 122, N-[4-[(6,7-Dimethoxy-1,5-naphthyridin-4-yl)oxy]phenyl]-5-(4-fluorophenyl)-4-oxo-1-propan-2-ylpyridine-3-carboxamide] | < 100 nM | 100 to 300 nM
Cc1nc(C)c(-c2ccc(F)cc2)c(O)c1C(=O)Nc1ccc(Oc2ccnc3cc(C(C)C)cnc23)c(F)c1 [Compound 595, 5-(4-Fluorophenyl)-N-[3-fluoro-4-[(7-propan-2-yl-1,5-naphthyridin-4-yl)oxy]phenyl]-4-hydroxy-2,6-dimethylpyridine-3-carboxamide] | < 100 nM | < 100 nM
COc1cc2nccc(Oc3ccc(NC(=O)c4cn(CCO)c(C)c(-c5ccc(F)cc5)c4=O)cc3F)c2nc1OC [Compound 619, N-[4-[(6,7-Dimethoxy-1,5-naphthyridin-4-yl)oxy]-3-fluorophenyl]-5-(4-fluorophenyl)-1-(2-hydroxyethyl)-6-methyl-4-oxopyridine-3-carboxamide] | < 100 nM | < 100 nM
CCn1cc(C(=O)Nc2ccc(Oc3ccnc4cc(OC)cnc34)cc2)c(=O)c(-c2ccc(F)cc2)c1 [Compound 169, 1-Ethyl-5-(4-fluorophenyl)-N-[4-[(7-methoxy-1,5-naphthyridin-4-yl)oxy]phenyl]-4-oxopyridine-3-carboxamide] | < 100 nM | > 300 nM
Cc1nc2c(Oc3ccc(NC(=O)c4cnc(C)c(-c5ccc(F)cc5)c4O)cc3F)ccnc2cc1-c1cnn(C(F)F)c1 [Compound 615, N-[4-[[7-[1-(Difluoromethyl)pyrazol-4-yl]-6-methyl-1,5-naphthyridin-4-yl]oxy]-3-fluorophenyl]-5-(4-fluorophenyl)-4-hydroxy-6-methylpyridine-3-carboxamide hydrochloride] | < 100 nM | < 100 nM
Cc1ncc(C(=O)Nc2ccc(Oc3ccnc4cc(C(C)C)cnc34)cc2)c(O)c1-c1ccc(F)cc1 [Compound 594, 5-(4-Fluorophenyl)-4-hydroxy-6-methyl-N-[4-[(7-propan-2-yl-1,5-naphthyridin-4-yl)oxy]phenyl]pyridine-3-carboxamide] | < 100 nM | < 100 nM
CCc1nc2c(Oc3ccc(NC(=O)c4cn(C(C)C)c(C)c(-c5ccc(F)cc5)c4=O)cc3F)ccnc2cc1OC [Compound 588, N-[4-[(6-Ethyl-7-methoxy-1,5-naphthyridin-4-yl)oxy]-3-fluorophenyl]-5-(4-fluorophenyl)-6-methyl-4-oxo-1-propan-2-ylpyridine-3-carboxamide] | < 100 nM | > 300 nM
COc1cc2nccc(Oc3ccc(NC(=O)c4cnc(C)c(-c5ccc(F)cc5C)c4O)cc3)c2nc1OC [Compound 174, N-[4-[(6,7-Dimethoxy-1,5-naphthyridin-4-yl)oxy]phenyl]-5-(4-fluoro-2-methylphenyl)-4-hydroxy-6-methylpyridine-3-carboxamide] | < 100 nM | < 100 nM
COc1cnc2c(Oc3ccc(NC(=O)c4cn(C)c(C)c(-c5ccc(F)cc5)c4=O)cc3F)ccnc2c1 [Compound 156, N-[3-Fluoro-4-[(7-methoxy-1,5-naphthyridin-4-yl)oxy]phenyl]-5-(4-fluorophenyl)-1,6-dimethyl-4-oxopyridine-3-carboxamide] | < 100 nM | > 300 nM
COc1cc2nccc(Oc3ccc(NC(=O)c4cnc(C)c(-c5ccc(F)cc5)c4O)cc3F)c2nc1OC [Compound 28, N-[4-[(6,7-Dimethoxy-1,5-naphthyridin-4-yl)oxy]-3-fluorophenyl]-5-(4-fluorophenyl)-4-hydroxy-6-methylpyridine-3-carboxamide] | < 100 nM | < 100 nM
COc1cc2nccc(Oc3ccc(NC(=O)c4cn(C(C)C)c(C)c(-c5ccc(F)cc5)c4=O)cc3F)c2nc1O [Compound 580, N-[3-Fluoro-4-[(6-hydroxy-7-methoxy-1,5-naphthyridin-4-yl)oxy]phenyl]-5-(4-fluorophenyl)-6-methyl-4-oxo-1-propan-2-ylpyridine-3-carboxamide] | < 100 nM | > 300 nM
CCn1cc(C(=O)Nc2ccc(Oc3ccnc4cc(OC)c(OC)nc34)cc2)c(=O)c(-c2ccc(F)cc2)c1C [Compound 168, N-[4-[(6,7-Dimethoxy-1,5-naphthyridin-4-yl)oxy]phenyl]-1-ethyl-5-(4-fluorophenyl)-6-methyl-4-oxopyridine-3-carboxamide] | < 100 nM | 100 to 300 nM
COc1cc2nccc(Oc3ccc(NC(=O)c4cnc(N)n(-c5ccc(F)cc5)c4=O)cc3F)c2nc1OC [Compound 565, 2-Amino-N-[4-[(6,7-dimethoxy-1,5-naphthyridin-4-yl)oxy]-3-fluorophenyl]-1-(4-fluorophenyl)-6-oxopyrimidine-5-carboxamide] | < 100 nM | < 100 nM
COc1cc2c(Oc3ccc(NC(=O)c4cnc(C)c(-c5ccc(F)cc5)c4O)cc3F)ccnc2cn1 [Compound 639, N-[3-fluoro-4-[(6-methoxy-1,7-naphthyridin-4-yl)oxy]phenyl]-5-(4-fluorophenyl)-4-hydroxy-6-methylpyridine-3-carboxamide] | < 100 nM | < 100 nM
CCn1cc(C(=O)Nc2ccc(Oc3ccnc4cc(OC)cnc34)cc2)c(=O)c(-c2ccc(F)cc2)c1C [Compound 163, 1-Ethyl-5-(4-fluorophenyl)-N-[4-[(7-methoxy-1,5-naphthyridin-4-yl)oxy]phenyl]-6-methyl-4-oxopyridine-3-carboxamide] | < 100 nM | > 300 nM
